Measured values reported in patent US8435752B2, “Gene polymorphisms predictive for dual TKI therapy” (University of Southern California, priority 2007, dated 2013).
Like-named read-outs stand apart in the source and are kept apart here.

Test system: advanced or metastatic gastric cancer patients
Conditions: for median OS: Experiment No. 1, p=0.07; for OS / response rates: Experiment No. 2; for OS: p=0.04; for response rates: p<0.01

## CS(=O)(=O)CCNCc1ccc(-c2ccc3ncnc(Nc4ccc(OCc5cccc(F)c5)c(Cl)c4)c3c2)o1 [lapatinib, Lapatinib]
A/A genotype of IL-8 T251A polymorphism, blood samples from 40 patients
  median OS: 10 months
First listed of the other 2 genotypes of IL-8 T251A
  median OS: 3 months
Second listed of the other 2 genotypes of IL-8 T251A
  median OS: 3 months
IL-8 T251A A/A, blood samples from 42 patients
  OS: 10 months
IL-8 T251A T/A
  OS: 5 months
IL-8 T251A T/T
  OS: 3 months
Patients with A allele of IL-8 T251A
  response rates: better response rates
Patients with T allele of VEGF C936T
  response rates: better response rates
Comparison group to higher HER2 gene expression (lower HER2), p=0.005
  median overall survival (OS): 3 months
Comparison group to lower IL-8 gene expression (higher IL-8), p=0.03
  median overall survival (OS): 3 months
Patients with higher intratumoral HER2 gene expression, p=0.005 vs lower
  median overall survival (OS): 6 months
Patients with lower intratumoral IL-8 gene expression, p=0.03 vs higher
  median overall survival (OS): 6 months
